Data: patent US5055302A, “Neuropeptide control of ocular growth” (Trustees of the University of Pennsylvania, priority 1990, dated 1991)
Entries after “also recorded” stand apart in the source; their conditions may differ.

How the values were obtained:
lid-sutured eyes = test: Form deprivation myopia induced by eyelid suture in chicks; VIP given daily by subconjunctival injection to the sutured eye, ocular dimensions measured with calipers; format: in vivo, White Leghorn chicks; conditions: for Axial length (deprived minus control eye), mean ± S.E.M. / Equatorial diameter (deprived minus control eye), mean ± S.E.M.: subconjunctival
Method: (§1) Form deprivation myopia in day-old White Leghorn chicks was induced by eyelid suture under aseptic conditions and ether anesthesia. One eyelid of the chicks was sutured. […] Translucent vision is permitted through the eyelid. The contralateral unsutured open eye served as the control eye. VIP was administered daily to the deprived, or sutured, eye. Saline was administered to the unsutured eye. All agents were given under ether anesthesia by subconjunctival injection. The chicks were maintained on a 12 hour light/dark cycle. The birds were killed at ages up to 4 weeks by decapitation under deep pentobarbital anesthesia. Axial and equatorial dimensions of unfixed eyes were measured with vernier calipers.
(§2) VIP (porcine VIP, Peninsula Laboratories, Inc. Belmont Calif.) was administered in three (descending) dose levels to lid-sutured eyes of 23 chicks and to one eye of an additional 15 chicks which had both eyes open.

open eyes = test: Effect of VIP on growth of open eyes (control chicks with both eyes open, one eye treated); format: in vivo, White Leghorn chicks; conditions: for Axial length (treated eye minus untreated eye), mean ± S.E.M. / Equatorial diameter (treated eye minus untreated eye), mean ± S.E.M.: open eyes, subconjunctival
Method: as §1, §2

CC[C@H](C)[C@H](NC(=O)[C@H](CO)NC(=O)[C@H](CC(N)=O)NC(=O)[C@H](CC(C)C)NC(=O)[C@H](Cc1ccc(O)cc1)NC(=O)[C@H](CCCCN)NC(=O)[C@H](CCCCN)NC(=O)[C@@H](NC(=O)[C@H](C)NC(=O)[C@H](CCSC)NC(=O)[C@H](CCC(N)=O)NC(=O)[C@H](CCCCN)NC(=O)[C@H](CCCNC(=N)N)NC(=O)[C@H](CC(C)C)NC(=O)[C@H](CCCNC(=N)N)NC(=O)[C@@H](NC(=O)[C@H](Cc1ccc(O)cc1)NC(=O)[C@H](CC(N)=O)NC(=O)[C@H](CC(=O)O)NC(=O)[C@@H](NC(=O)[C@H](Cc1ccccc1)NC(=O)[C@@H](NC(=O)[C@H](C)NC(=O)[C@H](CC(=O)O)NC(=O)[C@H](CO)NC(=O)[C@@H](N)Cc1c[nH]cn1)C(C)C)[C@@H](C)O)[C@@H](C)O)C(C)C)C(=O)N[C@@H](CC(C)C)C(=O)N[C@@H](CC(N)=O)C(N)=O [VIP, vasoactive intestinal peptide]
Block of axial elongation (lid-sutured eyes; 0.25 μg dose): ~80% | Treatment effect on axial length, one way analysis of variance (lid-sutured eyes; (p<0.05)): significant treatment effects | Treatment effect on equatorial diameters (lid-sutured eyes; VIP treatment, all doses): no significant treatment effects | Axial length (deprived minus control eye), mean ± S.E.M. (lid-sutured eyes; daily dose 0.025 μg): 0.17 ± 0.10 mm | Equatorial diameter (deprived minus control eye), mean ± S.E.M. (lid-sutured eyes; daily dose 0.025 μg): 0.91 ± 0.05 mm | Axial length (deprived minus control eye), mean ± S.E.M. (lid-sutured eyes; daily dose 0.25 μg): 0.07 ± 0.07 mm | Equatorial diameter (deprived minus control eye), mean ± S.E.M. (lid-sutured eyes; daily dose 0.25 μg): 0.92 ± 0.04 mm | Effective range of the peptide (lid-sutured eyes; daily dose 2.5 μg): outside the effective range | Axial length (deprived minus control eye), mean ± S.E.M. (lid-sutured eyes; daily dose 2.5 μg): 0.34 ± 0.15 mm | Equatorial diameter (deprived minus control eye), mean ± S.E.M. (lid-sutured eyes; daily dose 2.5 μg): 0.90 ± 0.10 mm | Treatment effect on axial length, one way analysis of variance (lid-sutured eyes; dose 0.25 μg (p<0.001)): profound treatment effect; also recorded: significant treatment effects | Treatment effect on axial or equatorial diameters (open eyes; controls (both eyes open), all three levels of VIP): no significant treatment effect | Axial length (treated eye minus untreated eye), mean ± S.E.M. (open eyes; daily dose 0.025 μg): 0.008 ± 0.10 mm | Equatorial diameter (treated eye minus untreated eye), mean ± S.E.M. (open eyes; daily dose 0.025 μg): 0.07 ± 0.04 mm | Axial length (treated eye minus untreated eye), mean ± S.E.M. (open eyes; daily dose 0.25 μg): 0.03 ± 0.05 mm | Equatorial diameter (treated eye minus untreated eye), mean ± S.E.M. (open eyes; daily dose 0.25 μg): 0.02 ± 0.02 mm | Axial length (treated eye minus untreated eye), mean ± S.E.M. (open eyes; daily dose 2.5 μg): 0.13 ± 0.06 mm | Equatorial diameter (treated eye minus untreated eye), mean ± S.E.M. (open eyes; daily dose 2.5 μg): -0.01 ± 0.06 mm
